Results as given in PMC7846937 (Bioorganic chemistry, 2020).

Tests used:
Test in all cases: stopped-flow CO2 hydration assay
Format in all cases: biochemical
hCA I = hCA I (Homo sapiens, UniProt P00915)
hCA II = hCA II (Homo sapiens, UniProt P00918)
hCA XII = hCA XII (Homo sapiens, UniProt O43570)
Chain of hCA XII (O43570 30-289 limits assumed): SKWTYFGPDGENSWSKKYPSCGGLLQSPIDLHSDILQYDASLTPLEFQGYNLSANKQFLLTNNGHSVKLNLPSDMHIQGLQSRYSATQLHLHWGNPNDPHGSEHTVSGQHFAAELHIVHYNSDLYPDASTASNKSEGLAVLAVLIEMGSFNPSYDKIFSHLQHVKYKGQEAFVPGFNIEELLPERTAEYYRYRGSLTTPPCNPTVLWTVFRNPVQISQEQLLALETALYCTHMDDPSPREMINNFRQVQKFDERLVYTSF

Chain of hCA I (P00915 2-261): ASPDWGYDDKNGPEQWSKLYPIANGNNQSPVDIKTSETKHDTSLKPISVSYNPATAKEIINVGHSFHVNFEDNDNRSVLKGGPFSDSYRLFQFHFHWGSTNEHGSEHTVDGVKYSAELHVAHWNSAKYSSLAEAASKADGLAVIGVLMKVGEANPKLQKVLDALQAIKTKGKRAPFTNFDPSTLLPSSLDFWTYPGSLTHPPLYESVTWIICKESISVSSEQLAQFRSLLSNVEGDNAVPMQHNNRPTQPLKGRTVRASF

Compound	Ki (hCA I) [nM]	Ki (hCA II) [nM]	Ki (hCA XII) [nM]
CCCCc1cc(-c2ccccc2)cc(-c2ccccc2)[n+]1-c1cccc(S(N)(=O)=O)c1 [19s, 2-n-Butyl-4,6-diphenyl-1-(3-sulfamoyl-phenyl)-pyridinium hexafluorophosphate]	137	43.9	35.2
Cc1c2cc(c(C)[n+]1-c1cccc(S(N)(=O)=O)c1)CCCCCCCCC2 [19u, 2,6-Dimethyl-3,5-(1,9-nonane-diyl)-1-(3-sulfamoyl-phenyl)pyridinium hexafluorophosphate]	256	39.8	25.1
CCc1cc(-c2ccccc2)cc(-c2ccccc2)[n+]1-c1cccc(S(N)(=O)=O)c1 [19p, 2-Ethyl-4,6-diphenyl-1-(3-sulfamoyl-phenyl)-pyridinium hexafluorophosphate]	18	4	1.4
Cc1cc(-c2ccccc2)cc(-c2ccccc2)[n+]1-c1cccc(S(N)(=O)=O)c1 [19o, 2-Methyl-4,6-diphenyl-1-(3-sulfamoyl-phenyl)-pyridinium hexafluorophosphate]	8.5	3.4	0.96
Cc1cc(-c2ccccc2)[n+](-c2cccc(S(N)(=O)=O)c2)c(-c2ccccc2)c1 [19w, 4-Methyl-2,6-diphenyl-1-(3-sulfamoylphenyl)pyridinium hexafluorophosphate]	19.7	6.7	8.8
CCCc1cc(C)cc(C)[n+]1-c1cccc(S(N)(=O)=O)c1 [19g, 2,4-Dimethyl-6-n-propyl-1-(3-sulfamoylphenyl)pyridinium hexafluorophosphate]	70.1	7.2	5.4
CCCCc1cc(C)cc(C)[n+]1-c1cccc(S(N)(=O)=O)c1 [19i, 2-n-Butyl-4,6-dimethyl-1-(3-sulfamoylphenyl)pyridinium hexafluorophosphate]	65.1	6.8	4
CCc1cc(C)cc(C)[n+]1-c1cccc(S(N)(=O)=O)c1 [19f, 2-Ethyl-4,6-dimethyl-1-(3-sulfamoylphenyl)pyridinium hexafluorophosphate]	63.6	12.9	3.7
Cc1cc(-c2ccccc2)cc(C)[n+]1-c1cccc(S(N)(=O)=O)c1 [19j, 2,6-Dimethyl-4-phenyl-1-(3-sulfamoyl-phenyl)-pyridinium hexafluorophosphate]	65.3	1.2	0.87
CC(C)c1cc(-c2ccccc2)cc(C(C)C)[n+]1-c1cccc(S(N)(=O)=O)c1 [19m, 2,6-Diisopropyl-4-phenyl-1-(3-sulfamoylphenyl)pyridinium hexafluorophosphate]	41.8	9.3	5.8
CCCc1cc(-c2ccccc2)cc(CCC)[n+]1-c1cccc(S(N)(=O)=O)c1 [19l, 2,6-Di-n-propyl-4-phenyl-1-(3-sulfamoyl-phenyl)-pyridinium hexafluorophosphate]	75.8	18	21.5
CCCCc1cc(C)cc(CCCC)[n+]1-c1cccc(S(N)(=O)=O)c1 [19e, 2,6-Di-n-butyl-4-methyl-1-(3-sulfamoylphenyl)pyridinium hexafluorophosphate]	462	58.1	51.5
CCc1cc(C)cc(CC)[n+]1-c1cccc(S(N)(=O)=O)c1 [19b, 2,6-Diethyl-4-methyl-1-(3-sulfamoylphenyl)pyridinium hexafluorophosphate]	86.3	8.5	4
Cc1cc(C)[n+](-c2cccc(S(N)(=O)=O)c2)c(C(C)C)c1 [19h, 2-Isopropyl-4,6-dimethyl-1-(3-sulfamoylphenyl)pyridinium hexafluorophosphate]	60.7	10.4	7.4
CCCc1cc(C)cc(CCC)[n+]1-c1cccc(S(N)(=O)=O)c1 [19c, 4-Methyl-2,6-di-n-propyl-1-(3-sulfamoylphenyl)pyridinium hexafluorophosphate]	84.5	7.8	3.6
Cc1cc(C)[n+](-c2cccc(S(N)(=O)=O)c2)c(C)c1 [19a, 2,4,6-Trimethyl-1-(3-sulfamoylphenyl)pyridinium hexafluorophosphate]	82.1	–	–
Cc1cc(C)[n+](-c2cccc(S(N)(=O)=O)c2)c(-c2ccccc2)c1 [19v, 2,4-Dimethyl-6-phenyl-1-(3-sulfamoylphenyl)pyridinium hexafluorophosphate]	72.3	8.8	4.7
CCc1cc(-c2ccccc2)cc(CC)[n+]1-c1cccc(S(N)(=O)=O)c1 [19k, 2,6-Diethyl-4-phenyl-1-(3-sulfamoyl-phenyl)-pyridinium hexafluorophosphate]	71.6	10.2	12.1
Cc1cc(C)[n+](-c2cccc(S(N)(=O)=O)c2)c(C)c1C [19t, 2,3,4,6-Tetramethyl-1-(3-sulfamoylphenyl)pyridinium hexafluorophosphate]	54.9	2.6	3.4
Cc1cc(C(C)C)[n+](-c2cccc(S(N)(=O)=O)c2)c(C(C)C)c1 [19d, 2,6-Diisopropyl-4-methyl-1-(3-sulfamoylphenyl)pyridinium hexafluorophosphate]	33.8	9.6	5.5
CCCCc1cc(-c2ccccc2)cc(CCCC)[n+]1-c1cccc(S(N)(=O)=O)c1 [19n, 2,6-Di-n-butyl-4-phenyl-1-(3-sulfamoyl-phenyl)-pyridinium hexafluorophosphate]	433	49.3	40.2
NS(=O)(=O)c1cccc(-[n+]2c(-c3ccccc3)cc(-c3ccccc3)cc2-c2ccccc2)c1 [19x, 2,4,6-Triphenyl-1-(3-sulfamoylphenyl)pyridinium hexafluorophosphate]	58	13	21.7
